Results published in ChEMBL document CHEMBL1201862, “PubChem BioAssay data set” (2004).
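How tested: cells in 96-well plates exposed to compound for 48 hours at five concentrations. GI50: concentration for 50% inhibition of growth.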 Active and inactive are the calls of the source. Rule as the data show it: active = GI50 up to about 1.1 µM and inactive = higher. *1 amine or outer side, *2 acyl side, *3 side chain or, on linkers, in order; H or OH if unused. Where a SMILES comes first, the peptide text is derived from it. [ ]: non-standard residue; d: D form. The star is where a group is joined. ξ: configuration not given here. X53 = CC(C)C[C@H](N[*:1])C1=N[C@H](C(=O)[*:2])CS1; Ile(3ξ) = CCC(C)[C@H](N)C(=O)O; Allyl(1,1-Me2) = C=CC(C)(C)*

Legend:
Assay in all cases: NCI tumour cell line growth inhibition, 48 h
A498 = system: A498
EKVX = system: EKVX
HCT-116 = system: HCT-116
HOP-62 = system: HOP-62
IGROV-1 = system: IGROV-1
LOX IMVI = system: LOX IMVI
MOLT-4 = system: MOLT-4
Malme-3M = system: Malme-3M
NCI-H23 = system: NCI-H23
NCI-H522 = system: NCI-H522
NCI/ADR-RES = system: NCI/ADR-RES
PC-3 = system: PC-3
RPMI-8226 = system: RPMI-8226
SF-268 = system: SF-268
SK-MEL-5 = system: SK-MEL-5
SK-OV-3 = system: SK-OV-3
SR = system: SR
SW-620 = system: SW-620
UACC-257 = system: UACC-257
UO-31 = system: UO-31

C/C(=N/NC(=S)N1CC2CCC(CC2)C1)c1cnccn1
GI50 (A498): 1.73 µM (inactive)
GI50 (EKVX): 0.0101 µM (active)
GI50 (HCT-116): < 0.01 µM (active)
GI50 (HOP-62): < 0.01 µM (active)
GI50 (IGROV-1): < 0.01 µM (active)
GI50 (LOX IMVI): < 0.01 µM (active)
GI50 (MOLT-4): < 0.01 µM (active)
GI50 (Malme-3M): < 0.01 µM (active)
GI50 (NCI-H23): < 0.01 µM (active)
GI50 (NCI-H522): 0.117 µM (active)
GI50 (NCI/ADR-RES): < 0.01 µM (active)
GI50 (PC-3): < 0.01 µM (active)
GI50 (RPMI-8226): < 0.01 µM (active)
GI50 (SF-268): < 0.01 µM (active)
GI50 (SK-MEL-5): < 0.0175 µM (active)
GI50 (SK-OV-3): < 0.01 µM (active)
GI50 (SR): < 0.01 µM (active)
GI50 (SW-620): < 0.01 µM (active)
GI50 (UACC-257): < 0.01 µM (active)
GI50 (UO-31): < 0.0168 µM (active)

COC(=O)c1c2c(cc3c1CC1(Cc4ccccc4C1=O)C3)CCC2 (centres undefined)
GI50 (A498): 22.4 µM (inactive)
GI50 (EKVX): 15.9 µM (inactive)
GI50 (HCT-116): 26.6 µM (inactive)
GI50 (HOP-62): 42.8 µM (inactive)
GI50 (IGROV-1): 26.6 µM (inactive)
GI50 (LOX IMVI): 31 µM (inactive)
GI50 (MOLT-4): 12.2 µM (inactive)
GI50 (Malme-3M): 20.3 µM (inactive)
GI50 (NCI-H23): 38.8 µM (inactive)
GI50 (NCI-H522): 49.8 µM (inactive)
GI50 (NCI/ADR-RES): 19.8 µM (inactive)
GI50 (PC-3): 55.7 µM (inactive)
GI50 (RPMI-8226): 18.6 µM (inactive)
GI50 (SF-268): 48.8 µM (inactive)
GI50 (SK-MEL-5): 15.3 µM (inactive)
GI50 (SK-OV-3): > 100 µM (inactive)
GI50 (SR): 15.6 µM (inactive)
GI50 (SW-620): 31.8 µM (inactive)
GI50 (UACC-257): 43.3 µM (inactive)
GI50 (UO-31): 13.9 µM (inactive)

COc1cccc(CC(C)NCC(O)c2ccc(O)c(O)c2)c1 (centres undefined)
GI50 (A498): > 100 µM (inactive)
GI50 (EKVX): 57.3 µM (inactive)
GI50 (HCT-116): 28.8 µM (inactive)
GI50 (HOP-62): 34.8 µM (inactive)
GI50 (IGROV-1): 92 µM (inactive)
GI50 (LOX IMVI): 43.3 µM (inactive)
GI50 (MOLT-4): 14 µM (inactive)
GI50 (Malme-3M): 43.5 µM (inactive)
GI50 (NCI-H23): 33.7 µM (inactive)
GI50 (NCI-H522): 34.8 µM (inactive)
GI50 (NCI/ADR-RES): > 100 µM (inactive)
GI50 (PC-3): 46.1 µM (inactive)
GI50 (RPMI-8226): 39.2 µM (inactive)
GI50 (SF-268): 50.5 µM (inactive)
GI50 (SK-MEL-5): 60.3 µM (inactive)
GI50 (SK-OV-3): 16.6 µM (inactive)
GI50 (SR): 17.4 µM (inactive)
GI50 (SW-620): 33 µM (inactive)
GI50 (UACC-257): 34.1 µM (inactive)
GI50 (UO-31): 39.3 µM (inactive)

O=C1C=C(Nc2cccnc2)c2ccccc2C1=O
GI50 (A498): 9.08 µM (inactive)
GI50 (EKVX): 12.2 µM (inactive)
GI50 (HCT-116): 11.6 µM (inactive)
GI50 (HOP-62): 4.23 µM (inactive)
GI50 (IGROV-1): 7.73 µM (inactive)
GI50 (LOX IMVI): 2.61 µM (inactive)
GI50 (MOLT-4): 17.6 µM (inactive)
GI50 (Malme-3M): 2.34 µM (inactive)
GI50 (NCI-H23): 2.8 µM (inactive)
GI50 (NCI-H522): 4.7 µM (inactive)
GI50 (NCI/ADR-RES): 4.25 µM (inactive)
GI50 (PC-3): 8.85 µM (inactive)
GI50 (RPMI-8226): 9.04 µM (inactive)
GI50 (SF-268): 7.91 µM (inactive)
GI50 (SK-MEL-5): 1.26 µM (inactive)
GI50 (SK-OV-3): 8.71 µM (inactive)
GI50 (SR): 6.55 µM (inactive)
GI50 (SW-620): 4.13 µM (inactive)
GI50 (UACC-257): 1.9 µM (inactive)
GI50 (UO-31): 12 µM (inactive)

C=CC(C)(C)OC[C@@H]1NC(=O)CNC(=O)[C@@H]2CCCN2C(=O)[C@H](C(C)CC)NC(=O)[C@@H]2CSC(=N2)[C@H](CC(C)C)NC1=O (some centres undefined) (cyclo(GS(Allyl(1,1-Me2))[X53][Ile(3ξ)]P))
GI50 (A498): > 100 µM (inactive)
GI50 (EKVX): 64.3 µM (inactive)
GI50 (HCT-116): 56.5 µM (inactive)
GI50 (HOP-62): > 100 µM (inactive)
GI50 (IGROV-1): 59 µM (inactive)
GI50 (LOX IMVI): > 100 µM (inactive)
GI50 (MOLT-4): 27.5 µM (inactive)
GI50 (Malme-3M): > 100 µM (inactive)
GI50 (NCI-H23): 43.9 µM (inactive)
GI50 (NCI-H522): 32.9 µM (inactive)
GI50 (NCI/ADR-RES): > 100 µM (inactive)
GI50 (PC-3): 44.2 µM (inactive)
GI50 (RPMI-8226): 18.6 µM (inactive)
GI50 (SF-268): 68.4 µM (inactive)
GI50 (SK-MEL-5): 32.6 µM (inactive)
GI50 (SK-OV-3): > 100 µM (inactive)
GI50 (SR): 64.4 µM (inactive)
GI50 (UACC-257): 38.5 µM (inactive)
GI50 (UO-31): 41.6 µM (inactive)

CC(C)N1CCN(c2ccc(OCC3COC(Cn4cncn4)(c4ccc(Cl)cc4Cl)O3)cc2)CC1 (centres undefined) [TERCONAZOLE]
GI50 (A498): 14 µM (inactive)
GI50 (EKVX): 15.1 µM (inactive)
GI50 (HCT-116): 11.2 µM (inactive)
GI50 (HOP-62): 13.8 µM (inactive)
GI50 (IGROV-1): 16 µM (inactive)
GI50 (LOX IMVI): 12 µM (inactive)
GI50 (MOLT-4): 10.9 µM (inactive)
GI50 (Malme-3M): 7.85 µM (inactive)
GI50 (NCI-H23): 14.2 µM (inactive)
GI50 (NCI-H522): 15.2 µM (inactive)
GI50 (NCI/ADR-RES): 16.7 µM (inactive)
GI50 (PC-3): 14.6 µM (inactive)
GI50 (RPMI-8226): 10.5 µM (inactive)
GI50 (SF-268): 12.3 µM (inactive)
GI50 (SK-MEL-5): 2.18 µM (inactive)
GI50 (SK-OV-3): 13.5 µM (inactive)
GI50 (SR): 3.33 µM (inactive)
GI50 (SW-620): 15.3 µM (inactive)
GI50 (UACC-257): 1.89 µM (inactive)
GI50 (UO-31): > 21.9 µM (inactive)

COc1cc2c(cc1O)NC(=O)[C@@H]1CCCN1C2=O
GI50 (A498): > 100 µM (inactive)
GI50 (EKVX): > 100 µM (inactive)
GI50 (HCT-116): > 100 µM (inactive)
GI50 (HOP-62): > 100 µM (inactive)
GI50 (IGROV-1): > 100 µM (inactive)
GI50 (LOX IMVI): > 100 µM (inactive)
GI50 (MOLT-4): > 100 µM (inactive)
GI50 (Malme-3M): > 100 µM (inactive)
GI50 (NCI-H23): > 100 µM (inactive)
GI50 (NCI-H522): > 100 µM (inactive)
GI50 (NCI/ADR-RES): > 100 µM (inactive)
GI50 (PC-3): > 100 µM (inactive)
GI50 (RPMI-8226): > 100 µM (inactive)
GI50 (SF-268): > 100 µM (inactive)
GI50 (SK-MEL-5): > 100 µM (inactive)
GI50 (SK-OV-3): > 100 µM (inactive)
GI50 (SR): > 100 µM (inactive)
GI50 (SW-620): > 100 µM (inactive)
GI50 (UACC-257): > 100 µM (inactive)
GI50 (UO-31): > 100 µM (inactive)

COc1cc(C(c2c(O)c3ccccc3oc2=O)c2c(O)c3ccccc3oc2=O)cc(Br)c1O
GI50 (A498): 15.9 µM (inactive)
GI50 (EKVX): 18.8 µM (inactive)
GI50 (HCT-116): 17.5 µM (inactive)
GI50 (HOP-62): 18.6 µM (inactive)
GI50 (IGROV-1): 15.6 µM (inactive)
GI50 (LOX IMVI): 16 µM (inactive)
GI50 (MOLT-4): 20.1 µM (inactive)
GI50 (Malme-3M): 16.8 µM (inactive)
GI50 (NCI-H23): 22.2 µM (inactive)
GI50 (NCI-H522): 12.9 µM (inactive)
GI50 (NCI/ADR-RES): 23 µM (inactive)
GI50 (PC-3): 19.1 µM (inactive)
GI50 (RPMI-8226): 19.8 µM (inactive)
GI50 (SF-268): 13.8 µM (inactive)
GI50 (SK-MEL-5): 16.3 µM (inactive)
GI50 (SK-OV-3): 20.1 µM (inactive)
GI50 (SR): 14 µM (inactive)
GI50 (SW-620): 20.6 µM (inactive)
GI50 (UACC-257): 17.3 µM (inactive)
GI50 (UO-31): 16.4 µM (inactive)

c1ccc2c(Cc3[nH]c4ccccc4c3Cc3c[nH]c4ccccc34)c[nH]c2c1
GI50 (A498): 2.39 µM (inactive)
GI50 (EKVX): 2.61 µM (inactive)
GI50 (HCT-116): 1.69 µM (inactive)
GI50 (HOP-62): 3.38 µM (inactive)
GI50 (IGROV-1): 1.67 µM (inactive)
GI50 (LOX IMVI): 2.19 µM (inactive)
GI50 (MOLT-4): 1.66 µM (inactive)
GI50 (Malme-3M): 2.05 µM (inactive)
GI50 (NCI-H23): 2.1 µM (inactive)
GI50 (NCI-H522): 1.8 µM (inactive)
GI50 (NCI/ADR-RES): 2.55 µM (inactive)
GI50 (PC-3): 2.38 µM (inactive)
GI50 (RPMI-8226): 2.74 µM (inactive)
GI50 (SF-268): 1.23 µM (inactive)
GI50 (SK-MEL-5): 2.17 µM (inactive)
GI50 (SK-OV-3): 3.56 µM (inactive)
GI50 (SR): 2.87 µM (inactive)
GI50 (SW-620): 1.74 µM (inactive)
GI50 (UACC-257): 2.71 µM (inactive)
GI50 (UO-31): 3.35 µM (inactive)

CN(C)C1C(O)=C(C(=O)NCN2CCCC2)C(=O)C2(O)C(O)=C3C(=O)c4c(O)cccc4C(C)(O)C3CC12 (centres undefined)
GI50 (A498): > 100 µM (inactive)
GI50 (EKVX): > 100 µM (inactive)
GI50 (HCT-116): > 100 µM (inactive)
GI50 (HOP-62): > 100 µM (inactive)
GI50 (IGROV-1): > 100 µM (inactive)
GI50 (LOX IMVI): > 100 µM (inactive)
GI50 (MOLT-4): 40 µM (inactive)
GI50 (Malme-3M): 25.6 µM (inactive)
GI50 (NCI-H23): 63.5 µM (inactive)
GI50 (NCI-H522): > 100 µM (inactive)
GI50 (NCI/ADR-RES): > 100 µM (inactive)
GI50 (PC-3): > 100 µM (inactive)
GI50 (RPMI-8226): > 100 µM (inactive)
GI50 (SF-268): > 100 µM (inactive)
GI50 (SK-MEL-5): > 100 µM (inactive)
GI50 (SK-OV-3): > 100 µM (inactive)
GI50 (SR): > 100 µM (inactive)
GI50 (SW-620): > 100 µM (inactive)
GI50 (UACC-257): 69.2 µM (inactive)
GI50 (UO-31): > 100 µM (inactive)
